In data set [1] the test system is DU-145, MCF-7 and T24 cancer cells. The experiment in a line: Antiproliferative activity over DU-145, MCF-7 and T24 cancer cells. The class given is cell-based, human. As to conditions: summary of Table 1 (DU-145, MCF-7, T24). The procedure: (§1) Human cancer cell lines from bladder (T24), prostate (DU–145), breast (MCF–7) and non-tumor HEK-293 cells were obtained from the American Type Culture Collection (ATCC, Manassas, VA, USA). The cultures were maintained at a density of 1–2 × 10^5 cells/mL and the medium was changed at 48- and 72-h intervals. They were cultured in high-glucose Dulbecco’s modified Eagle medium (Gibco, Grand Island, NY, USA) supplemented with 10% fetal calf serum, penicillin (100 U/mL) and streptomycin (100 μg/mL). All cultures were kept at 37 °C in 95% air/5% CO2 at 100% humidity. Phosphate-buffered saline (PBS) was purchased from Gibco. Cells were incubated at the indicated times at 37 °C with or without compounds 1–14 at various concentrations.
(§2) The cytotoxicity of the compounds 1–14 was assessed by following the reduction of MTT (3-(4,5-Dimethylthiazol-2-yl)-2,5-diphenyltetrazolium bromide) to formazan blue. Cells were seeded into 96-well plates at a density of 10,000 cells/well for 24 h and then they were further incubated for 24 h with or without the quinones. Doxorubicin was used as a standard chemotherapeutic agent (positive control). Cells were washed twice with warm PBS and further incubated with MTT (0.5 mg/mL) for 2 h at 37 °C. Blue formazan crystals were solubilized by adding 100 µL DMSO/well, and the optical density of colored solutions was subsequently read at 550 nm in a microplate reader Tecan infinite M200 Pro (Männedorf, Switzerland). The compounds 1–14 were dissolved in DMSO (stock solution at 100 mM) and further diluted to be evaluated at the following concentrations: 0 μM, 1 μM, 10 μM, 20 μM, 40 μM, 60 μM, 80 μM and 100 μM. Results are expressed as % of MTT reduction compared to untreated control conditions. The IC50 values were calculated using the GraphPad Prism 8.0.2 software (San Diego, CA, USA).

Data set [2] is described as follows: Half-wave potentials by cyclic voltammetry. The class given is physicochemical. The note with it: for −E^I½ (mV): acetonitrile, platinum electrode, room temperature, negative of the potential; for half-wave potential: signed value. The procedure: Calculation of lipophilicity (ClogP) and molar refractivity (CMR) was assessed by using the ChemBioDraw Ultra 11.0 software and the obtained values are shown in Table 3. Redox potentials of 2-phenylamino-3-acyl-1,4-naphtoquinones 1–14 were measured by cyclic voltammetry at room temperature in acetonitrile as solvent using a platinum electrode and 0.1M tetraethylammonium tetrafluoroborate as the supporting electrolyte.

Data set [3] concerns non-tumorigenic HEK-293 (embryonic kidney cells). The experiment in a line: MTT cell survival assay, non-tumorigenic HEK-293 cells. The class given is cell-based. As to conditions: Homo sapiens, HEK293; MTT test; cells incubated at 37 °C for 48 h (Table 1 footnote); mean ± SEM, n = 3. The procedure: as §1
as §2, with “Cells were seeded into 96-well plates at a density of 10,000 cells/well for 24 h and then they were further incubated for 24 h with or without the quinones.” left out
(In general: Tetrazolium assays rely on reduction of a dye to a coloured formazan, in cell work by metabolically active cells.)

The subject of data set [4] is MCF-7 (mammary cancer cells). The experiment in a line: MTT cell survival assay, MCF-7 mammary cancer cells. The class given is cell-based. The note with it: Homo sapiens, MCF7; MTT test; cells incubated at 37 °C for 48 h (Table 1 footnote); mean ± SEM, n = 3. The protocol: as §1
as §2, with “Cells were seeded into 96-well plates at a density of 10,000 cells/well for 24 h and then they were further incubated for 24 h with or without the quinones.” left out

Data set [5] relates to DU-145 (prostate cancer cells). Briefly: MTT cell survival assay, DU-145 prostate cancer cells. The class given is cell-based. The note with it: Homo sapiens, MTT test, cells incubated at 37 °C for 48 h (Table 1 footnote), mean ± SEM, n = 3. The protocol: as §1
as §2, with “Cells were seeded into 96-well plates at a density of 10,000 cells/well for 24 h and then they were further incubated for 24 h with or without the quinones.” left out

The test system of data set [6] is T24 (Urinary bladder cancer cells). Briefly: MTT cell survival assay, T24 urinary bladder cancer cells. The class given is cell-based. The note with it: Homo sapiens; MTT test; cells incubated at 37 °C for 48 h (Table 1 footnote); mean ± SEM, n = 3. The protocol:
as §1
as §2, with “Cells were seeded into 96-well plates at a density of 10,000 cells/well for 24 h and then they were further incubated for 24 h with or without the quinones.” left out

In data set [7] the test system is HEK-293 cells/tumour cells. Briefly: Mean selective index, HEK-293 vs tumour cells. As to conditions: MSI = IC50 values HEK-293 cells/IC50 values tumour cells. The class given is cell-based, human. The procedure: as §2

The IC50 is the concentration that gives 50% inhibition. Regarding `CCCCCC(=O)C1=C(Nc2ccccc2)C(=O)c2ccccc2C1=O` [Compound 1, 2-(Phenylamino)-3-hexanoylnaphthalene-1,4-dione], the IC50 is 60.9 to 86.7 µM in data set [1] (Homo sapiens, read-out: IC50 range over the cancer cell lines); 77.3 ± 3.66 µM in data set [3]; 62.68 ± 0.53 µM in data set [4]; 60.89 ± 0.34 µM in data set [5]; 86.7 ± 2.52 µM in data set [6]. In data set [2], the “−E^I½ (mV)” value was found to be 475 mV. In addition, the “MSI (mean selective index)” value in data set [7] was found to be 1.1.
Regarding `CCCCCCCCCC(=O)C1=C(Nc2ccccc2)C(=O)c2ccccc2C1=O` [Compound 2, 2-(Phenylamino)-3-decanoylnaphthalene-1,4-dione], the “IC50 range over the cancer cell lines” value in data set [1] is “almost devoid of activity”. For the same compound, the “−E^I½ (mV)” value in data set [2] worked out at 480 mV. The IC50 in data set [3] is 79.8 ± 9.74 µM; in data set [4], above 100 µM; in data set [5], above 100 µM; in data set [6], above 100 µM. In addition, in data set [7], the “MSI (mean selective index)” value is recorded as below 0.8.
On to `CCCCCCCCCCCC(=O)C1=C(Nc2ccccc2)C(=O)c2ccccc2C1=O` [Compound 3, 2-(Phenylamino)-3-dodecanoylnaphthalene-1,4-dione], for which the “IC50 range over the cancer cell lines” value in data set [1] was “almost devoid of activity”. Besides, the “−E^I½ (mV)” value in data set [2] came to 484 mV. The IC50 in data set [3], in data set [4], in data set [5] and in data set [6] was above 100 µM throughout. The “MSI (mean selective index)” value in data set [7] was determined as 1.0.
As for `COc1cccc(C(=O)C2=C(Nc3ccccc3)C(=O)c3ccccc3C2=O)c1` [Compound 5, 2-(Phenylamino)-3-(3-methoxybenzoyl)naphthalene-1,4-dione], in data set [2], the “−E^I½ (mV)” value was determined as 500 mV. Moreover, the IC50 is 30.8 ± 4.07 µM in data set [3], 6.63 ± 0.13 µM in data set [4], 10.2 ± 0.95 µM in data set [5] and 12 ± 0.37 µM in data set [6]. Also, in data set [7], the “MSI (mean selective index)” value came out at 3.2.
Turning to `COc1ccc(C(=O)C2=C(Nc3ccccc3)C(=O)c3ccccc3C2=O)cc1` [Compound 6, 2-(Phenylamino)-3-(4-methoxybenzoyl)naphthalene-1,4-dione], the “−E^I½ (mV)” value in data set [2] is 800 mV. In addition, the IC50 in data set [3] was determined as 38.9 ± 3.3 µM; in data set [4] it was 11.8 ± 0.54 µM; in data set [5], 19.5 ± 0.95 µM; in data set [6], 13.3 ± 0.44 µM. The “MSI (mean selective index)” value in data set [7] was determined as 2.6.
For the compound `COc1ccc(C(=O)C2=C(Nc3ccccc3)C(=O)c3ccccc3C2=O)cc1OC` [Compound 7, 2-(Phenylamino)-3-(3,4-dimethoxybenzoyl)naphthalene-1,4-dione], in data set [2], the “−E^I½ (mV)” value was determined as 604 mV. Moreover, the half-inhibitory concentration (IC50) was 79.9 ± 10.4 µM in data set [3], 10.6 ± 0.27 µM in data set [4], 11.9 ± 0.22 µM in data set [5] and 15.2 ± 0.88 µM in data set [6]. Also, the “MSI (mean selective index)” value in data set [7] turned out to be 6.4.
In the case of `COc1cc(C(=O)C2=C(Nc3ccccc3)C(=O)c3ccccc3C2=O)cc(OC)c1OC` [Compound 8, 2-(Phenylamino)-3-(3,4,5-trimethoxybenzoyl)naphthalene-1,4-dione], the “−E^I½ (mV)” value in data set [2] was 690 mV. For the same compound, the IC50 in data set [3] worked out at 37.4 ± 1.7 µM; in data set [4], 4.88 ± 0.52 µM; in data set [5] it was 11.7 ± 0.29 µM; in data set [6], 7.14 ± 0.2 µM. The “MSI (mean selective index)” value in data set [7] is 4.7.
Regarding `COc1cc(C(=O)C2=C(Nc3ccccc3)C(=O)c3ccccc3C2=O)ccc1O` [Compound 9, 2-(Phenylamino)-3-(4-hydroxy-3-methoxybenzoyl)naphthalene-1,4-dione], the “−E^I½ (mV)” value in data set [2] was 595 mV. Further, the IC50 in data set [3] came to 47.7 ± 3.29 µM; in data set [4], 5.81 ± 0.71 µM; in data set [5], 12.5 ± 0.55 µM; in data set [6], 13.8 ± 1.87 µM. Besides, the “MSI (mean selective index)” value in data set [7] was 4.5.
Regarding `Cc1ccc(C(=O)C2=C(Nc3ccccc3)C(=O)c3ccccc3C2=O)cc1` [Compound 10, 2-(Phenylamino)-3-(4-methylbenzoyl)naphthalene-1,4-dione], in data set [2], the “−E^I½ (mV)” value came to 770 mV. The IC50 came to 78.8 ± 5.53 µM in data set [3], 14.2 ± 0.53 µM in data set [4], 11.1 ± 0.57 µM in data set [5] and 21.5 ± 2.26 µM in data set [6]. In addition, in data set [7], the “MSI (mean selective index)” value was found to be 5.0.
Consider `O=C(C1=C(Nc2ccccc2)C(=O)c2ccccc2C1=O)c1cccs1` [Compound 12], for which the “−E^I½ (mV)” value in data set [2] is 552 mV. Also, the half-wave potential in data set [2] is reported as −552 mV. Further, the IC50 is 24.8 ± 1.41 µM in data set [3], 4.2 ± 0.06 µM in data set [4], 6.97 ± 0.6 µM in data set [5] and 11.7 ± 0.89 µM in data set [6]. The “MSI (mean selective index)” value in data set [7] turned out to be 3.3.
Take `O=C(C1=C(Nc2ccccc2)C(=O)c2ccccc2C1=O)c1ccsc1` [Compound 13, 2-(Phenylamino)-3-(thiophene-3-carbonyl)naphthalene-1,4-dione]: the “−E^I½ (mV)” value in data set [2] was 635 mV. In data set [2], the half-wave potential was −635 mV. In addition, the IC50 in data set [3] came to 20.4 ± 2.77 µM; in data set [4], 6.37 ± 0.23 µM; in data set [5] it was 8.91 ± 0.82 µM; in data set [6] it was 13.8 ± 0.58 µM. The “MSI (mean selective index)” value in data set [7] worked out at 2.1.
On to `O=C(C1=C(Nc2ccccc2)C(=O)c2ccccc2C1=O)c1ccc[nH]1` [Compound 14, 2-(Phenylamino)-3-(1H-pyrrole-2-carbonyl)naphthalene-1,4-dione], for which, in data set [2], the “−E^I½ (mV)” value was 685 mV. The half-wave potential in data set [2] was −685 mV. Further, the IC50 in data set [3] is 13.7 ± 1.36 µM; in data set [4], 10.7 ± 0.35 µM; in data set [5] it was 14.5 ± 0.25 µM; in data set [6], 21.7 ± 0.22 µM. For the same compound, the “MSI (mean selective index)” value in data set [7] is listed as 0.9.
For the compound `COc1cccc2c1C(=O)c1c(O)c3c(c(O)c1C2=O)C[C@@](O)(C(=O)CO)C[C@@H]3O[C@H]1C[C@H](N)[C@H](O)[C@H](C)O1` [DOX, Doxorubicin, reference compound], the IC50 stood at 4.27 ± 0.34 µM in data set [3], 0.33 ± 0.05 µM in data set [4], 0.93 ± 0.06 µM in data set [5] and 0.46 ± 0.08 µM in data set [6]. In addition, the “MSI (mean selective index)” value in data set [7] is 7.5.

Values taken from paper PMC10254843, “Discovery of New 2-Phenylamino-3-acyl-1,4-naphthoquinones as Inhibitors of Cancer Cells Proliferation: Searching for Intra-Cellular Targets Playing a Role in Cancer Cells Survival” (Molecules, 2023).
